Legend:
[1] = biological target: Voltage-gated inwardly rectifying potassium channel KCNH2 (Homo sapiens, UniProt Q12809); assay: Antagonist activity at human ERG in HEK293 cells assessed as inhibition of [35S]N-[(4R)-1'-[(2R)-6-cyano-1,2,3,4-tetrahydro-2-naphthalenyl]-3,4-dihydro-4-hydroxyspiro[2H-1-benzopyran-2,4'-piperidin]-6-yl]methanesulfonamide binding
[2] = biological target: Histamine H3 receptor (Homo sapiens, UniProt Q9Y5N1); assay: Antagonist activity at human cloned histamine H3 receptor expressed in CHO-K1 cells assessed as inhibition of R-alpha-methylhistamine-induced [35S]GTPgammaS binding; assay type: functional, cell-based
Chain of Histamine H3 receptor (Q9Y5N1 whole entry): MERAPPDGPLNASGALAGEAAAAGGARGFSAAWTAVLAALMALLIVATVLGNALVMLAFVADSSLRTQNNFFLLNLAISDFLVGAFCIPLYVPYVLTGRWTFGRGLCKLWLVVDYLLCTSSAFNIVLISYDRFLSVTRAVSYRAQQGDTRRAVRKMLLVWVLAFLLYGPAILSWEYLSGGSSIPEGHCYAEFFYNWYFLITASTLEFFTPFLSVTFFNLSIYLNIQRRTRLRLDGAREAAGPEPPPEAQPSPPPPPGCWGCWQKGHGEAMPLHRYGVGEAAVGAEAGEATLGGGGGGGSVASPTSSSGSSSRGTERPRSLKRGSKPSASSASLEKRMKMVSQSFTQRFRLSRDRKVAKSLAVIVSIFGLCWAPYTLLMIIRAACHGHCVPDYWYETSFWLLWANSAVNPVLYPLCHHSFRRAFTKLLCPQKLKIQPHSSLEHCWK

Chain of Voltage-gated inwardly rectifying potassium channel KCNH2 (Q12809 whole entry): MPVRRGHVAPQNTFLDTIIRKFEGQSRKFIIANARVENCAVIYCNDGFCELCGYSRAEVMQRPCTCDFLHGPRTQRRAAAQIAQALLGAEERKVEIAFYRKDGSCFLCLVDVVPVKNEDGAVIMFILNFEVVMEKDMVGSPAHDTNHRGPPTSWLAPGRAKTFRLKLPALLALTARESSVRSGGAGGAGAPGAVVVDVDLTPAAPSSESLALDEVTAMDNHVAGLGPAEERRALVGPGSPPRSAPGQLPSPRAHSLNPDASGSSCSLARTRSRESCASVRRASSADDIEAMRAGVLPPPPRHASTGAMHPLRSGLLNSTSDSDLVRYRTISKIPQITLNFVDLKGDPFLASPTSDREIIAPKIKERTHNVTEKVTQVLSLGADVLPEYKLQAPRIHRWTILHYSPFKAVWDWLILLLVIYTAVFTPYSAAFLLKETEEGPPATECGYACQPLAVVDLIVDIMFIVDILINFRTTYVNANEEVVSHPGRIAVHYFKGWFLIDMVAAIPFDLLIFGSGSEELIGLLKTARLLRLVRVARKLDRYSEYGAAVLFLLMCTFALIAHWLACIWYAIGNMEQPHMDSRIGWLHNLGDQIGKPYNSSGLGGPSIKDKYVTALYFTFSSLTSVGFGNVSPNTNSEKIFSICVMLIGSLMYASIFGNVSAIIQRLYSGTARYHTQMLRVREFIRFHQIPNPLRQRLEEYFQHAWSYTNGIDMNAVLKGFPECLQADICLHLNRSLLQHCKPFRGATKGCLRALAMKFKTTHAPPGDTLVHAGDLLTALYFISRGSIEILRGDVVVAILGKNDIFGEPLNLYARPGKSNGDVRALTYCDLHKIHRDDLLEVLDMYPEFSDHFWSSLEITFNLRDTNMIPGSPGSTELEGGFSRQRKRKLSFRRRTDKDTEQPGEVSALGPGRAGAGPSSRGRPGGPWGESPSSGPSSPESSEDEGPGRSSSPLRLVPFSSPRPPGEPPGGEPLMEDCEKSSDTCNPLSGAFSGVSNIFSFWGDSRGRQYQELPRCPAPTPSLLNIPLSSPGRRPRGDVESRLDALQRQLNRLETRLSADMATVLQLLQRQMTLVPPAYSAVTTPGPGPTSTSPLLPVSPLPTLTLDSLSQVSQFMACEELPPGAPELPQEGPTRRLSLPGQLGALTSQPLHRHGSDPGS

Row | SMILES | IC50 [1] | IC50 [2]
1 | Cc1nc2ncccc2c(=O)n1-c1ccc(OC2CCN(C3CCC3)CC2)cc1 | > 10000 nM | 1.6 nM
2 | Cc1nc2ccccc2c(=O)n1-c1ccc(OC2CCN(C3CCC3)C2)cc1 (centres undefined) | – | 103 nM
3 | Cc1nc2cccnc2c(=O)n1-c1ccc(OC2CCN(C3CCC3)CC2)cc1 | > 10000 nM | 14 nM
4 | Cc1nc2ccccc2c(=O)n1-c1ccc(OC2CCN(C(C)C)CC2)cc1 | – | 14 nM
5 | CNC(=O)c1ccc(Oc2ccc3c(c2)CCN(C2CCC2)CC3)nc1 [GSK189254] | – | 0.55 nM
6 | Cc1nc2ccc(Cl)cc2c(=O)n1-c1ccc(OC2CCN(C3CCC3)CC2)cc1 | 5400 nM | 1.5 nM
7 | Cc1nc2ccc(F)cc2c(=O)n1-c1ccc(OC2CCN(C3CCC3)CC2)cc1 | > 10000 nM | 1.2 nM
8 | COc1ccc2nc(C)n(-c3ccc(OC4CCN(C5CCC5)CC4)cc3)c(=O)c2c1 | > 10000 nM | 1.5 nM
9 | Cc1nc2cc(F)ccc2c(=O)n1-c1ccc(OC2CCN(C3CCC3)CC2)cc1 | – | 1.3 nM
